Source: paper PMC7613998, “Development of selective inhibitors of phosphatidylinositol 3-kinase C2α” (Nature Chemical Biology, 2022)
Blank lines part the entries; values can stand above or below the compound they belong to.

Assays:
Test in all cases: biochemical
Parameters in all cases: SelectScreen Z'-LYTE purified kinase panel, per cent inhibition, mean of two points
PDGFRA (PDGFR alpha) = PDGFRA (PDGFR alpha) (Homo sapiens, UniProt P16234); conditions: (μM)=Km app
PAK2 (PAK65) = PAK2 (PAK65) (Homo sapiens, UniProt Q13177); conditions: (μM)=Km app
ERBB4 (HER4) = ERBB4 (HER4) (Homo sapiens, UniProt Q15303); conditions: (μM)=Km app
CSF1R (FMS) = CSF1R (FMS) (Homo sapiens, UniProt P07333); conditions: (μM)=Km app
PAK1 = PAK1 (Homo sapiens, UniProt Q13153); conditions: (μM)=Km app
EPHA2 = EPHA2 (Homo sapiens, UniProt P29317); conditions: (μM)=Km app
TEK (Tie2) = TEK (Tie2) (Homo sapiens, UniProt Q02763); conditions: (μM)=Km app
RET = RET (Homo sapiens, UniProt P07949); conditions: (μM)=Km app
ABL1 T315I = ABL1 T315I (Homo sapiens, UniProt P00519, T315I); conditions: (μM)=Km app
ACVR1B (ALK4) = molecular target: T1, ACVR1B (ALK4) (Homo sapiens, UniProt P36896); conditions: (μM)=Km app
T1 sequence (P36896 1-505): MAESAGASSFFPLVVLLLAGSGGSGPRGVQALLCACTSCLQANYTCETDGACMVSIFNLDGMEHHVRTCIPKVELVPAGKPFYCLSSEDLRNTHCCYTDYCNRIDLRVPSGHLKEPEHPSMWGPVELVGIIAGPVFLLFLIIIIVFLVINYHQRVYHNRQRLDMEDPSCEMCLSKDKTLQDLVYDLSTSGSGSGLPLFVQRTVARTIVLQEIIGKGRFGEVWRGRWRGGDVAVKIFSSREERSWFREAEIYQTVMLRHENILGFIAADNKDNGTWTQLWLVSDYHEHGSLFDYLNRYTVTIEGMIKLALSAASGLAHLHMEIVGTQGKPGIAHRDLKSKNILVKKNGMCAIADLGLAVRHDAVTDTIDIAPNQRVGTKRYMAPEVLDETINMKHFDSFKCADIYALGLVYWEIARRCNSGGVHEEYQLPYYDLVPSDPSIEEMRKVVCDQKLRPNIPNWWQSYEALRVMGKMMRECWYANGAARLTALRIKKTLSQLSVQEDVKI

ERBB2 (HER2) = ERBB2 (HER2) (Homo sapiens, UniProt P04626); conditions: (μM)=Km app
PLK3 = PLK3 (Homo sapiens, UniProt Q9H4B4); conditions: (μM)=Km app
MET (cMet) = MET (cMet) (Homo sapiens, UniProt P08581); conditions: (μM)=Km app
PLK1 = PLK1 (Homo sapiens, UniProt P53350); conditions: (μM)=Km app
AKT2 (PKB beta) = AKT2 (PKB beta) (Homo sapiens, UniProt P31751); conditions: (μM)=Km app
PRKACA (PKA) = PRKACA (PKA) (Homo sapiens, UniProt P17612); conditions: (μM)=Km app
PRKCA (PKC alpha) = PRKCA (PKC alpha) (Homo sapiens, UniProt P17252); conditions: (μM)=Km app
MAP3K8 (COT) = MAP3K8 (COT) (Homo sapiens, UniProt P41279); conditions: (μM)=100

Chain of CSF1R (FMS) (P07333 whole entry): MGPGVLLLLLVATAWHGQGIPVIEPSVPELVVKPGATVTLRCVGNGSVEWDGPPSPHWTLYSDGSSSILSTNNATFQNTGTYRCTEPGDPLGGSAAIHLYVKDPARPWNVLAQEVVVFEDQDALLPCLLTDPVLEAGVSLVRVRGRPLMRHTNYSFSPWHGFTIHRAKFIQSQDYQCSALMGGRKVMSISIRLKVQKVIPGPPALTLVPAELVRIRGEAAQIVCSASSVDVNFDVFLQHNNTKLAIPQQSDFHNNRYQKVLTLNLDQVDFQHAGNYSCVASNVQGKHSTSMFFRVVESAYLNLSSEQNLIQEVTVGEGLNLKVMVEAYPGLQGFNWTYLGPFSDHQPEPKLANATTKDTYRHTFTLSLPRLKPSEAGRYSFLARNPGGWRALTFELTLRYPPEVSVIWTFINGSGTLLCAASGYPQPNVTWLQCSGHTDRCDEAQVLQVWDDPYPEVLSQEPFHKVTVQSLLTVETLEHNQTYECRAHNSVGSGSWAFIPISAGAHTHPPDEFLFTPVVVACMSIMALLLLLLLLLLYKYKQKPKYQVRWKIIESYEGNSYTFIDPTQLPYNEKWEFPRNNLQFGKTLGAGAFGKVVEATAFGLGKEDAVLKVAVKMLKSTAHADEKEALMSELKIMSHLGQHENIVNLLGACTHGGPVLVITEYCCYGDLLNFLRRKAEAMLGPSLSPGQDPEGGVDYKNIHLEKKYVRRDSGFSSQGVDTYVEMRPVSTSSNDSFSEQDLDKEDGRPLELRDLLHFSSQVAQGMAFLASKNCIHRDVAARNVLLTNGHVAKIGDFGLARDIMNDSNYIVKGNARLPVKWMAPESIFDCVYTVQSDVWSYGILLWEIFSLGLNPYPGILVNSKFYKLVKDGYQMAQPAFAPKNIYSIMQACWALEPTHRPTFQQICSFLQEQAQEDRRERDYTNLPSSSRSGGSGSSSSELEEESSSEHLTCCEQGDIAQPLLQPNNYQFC
Chain of AKT2 (PKB beta) (P31751 whole entry): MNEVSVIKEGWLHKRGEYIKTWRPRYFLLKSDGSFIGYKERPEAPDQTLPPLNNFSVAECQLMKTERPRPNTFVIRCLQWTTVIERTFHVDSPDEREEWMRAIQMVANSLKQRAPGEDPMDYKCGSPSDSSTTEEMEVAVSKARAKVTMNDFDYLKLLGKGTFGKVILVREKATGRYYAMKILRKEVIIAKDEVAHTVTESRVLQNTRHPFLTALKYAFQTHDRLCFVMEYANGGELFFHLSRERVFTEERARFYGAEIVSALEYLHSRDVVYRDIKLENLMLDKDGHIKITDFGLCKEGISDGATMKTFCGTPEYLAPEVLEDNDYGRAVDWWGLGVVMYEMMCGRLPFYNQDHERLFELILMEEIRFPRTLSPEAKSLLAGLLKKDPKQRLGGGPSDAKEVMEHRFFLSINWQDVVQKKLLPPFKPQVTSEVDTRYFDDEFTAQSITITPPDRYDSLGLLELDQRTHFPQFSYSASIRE
Chain of TEK (Tie2) (Q02763 whole entry): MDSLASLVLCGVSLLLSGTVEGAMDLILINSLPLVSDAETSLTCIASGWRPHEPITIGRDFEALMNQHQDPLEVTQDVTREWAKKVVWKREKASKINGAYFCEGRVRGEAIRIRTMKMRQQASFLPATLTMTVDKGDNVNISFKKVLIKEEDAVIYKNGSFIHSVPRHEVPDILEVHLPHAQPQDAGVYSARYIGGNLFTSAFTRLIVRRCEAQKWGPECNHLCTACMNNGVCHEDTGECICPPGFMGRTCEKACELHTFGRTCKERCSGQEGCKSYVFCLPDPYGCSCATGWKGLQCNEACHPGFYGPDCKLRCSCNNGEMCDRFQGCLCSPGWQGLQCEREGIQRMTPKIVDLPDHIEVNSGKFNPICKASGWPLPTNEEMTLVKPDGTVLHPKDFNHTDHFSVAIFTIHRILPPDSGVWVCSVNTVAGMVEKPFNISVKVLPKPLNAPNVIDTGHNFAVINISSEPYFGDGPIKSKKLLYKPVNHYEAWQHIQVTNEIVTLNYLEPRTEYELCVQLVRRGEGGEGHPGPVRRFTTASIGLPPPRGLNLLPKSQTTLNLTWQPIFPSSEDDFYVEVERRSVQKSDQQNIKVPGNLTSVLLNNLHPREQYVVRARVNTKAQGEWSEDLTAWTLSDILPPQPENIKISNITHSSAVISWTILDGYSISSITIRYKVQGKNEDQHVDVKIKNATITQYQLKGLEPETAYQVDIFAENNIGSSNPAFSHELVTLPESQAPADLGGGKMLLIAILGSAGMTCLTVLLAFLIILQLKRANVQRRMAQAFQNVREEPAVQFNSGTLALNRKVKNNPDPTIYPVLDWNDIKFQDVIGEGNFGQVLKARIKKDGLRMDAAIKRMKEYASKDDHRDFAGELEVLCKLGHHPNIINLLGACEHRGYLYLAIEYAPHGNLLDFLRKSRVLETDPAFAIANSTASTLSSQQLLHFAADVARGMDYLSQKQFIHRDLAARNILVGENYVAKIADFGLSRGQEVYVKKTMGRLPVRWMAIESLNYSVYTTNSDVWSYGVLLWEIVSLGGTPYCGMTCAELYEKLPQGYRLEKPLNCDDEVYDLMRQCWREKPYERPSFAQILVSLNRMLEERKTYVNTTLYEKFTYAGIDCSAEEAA
Chain of PAK2 (PAK65) (Q13177 whole entry): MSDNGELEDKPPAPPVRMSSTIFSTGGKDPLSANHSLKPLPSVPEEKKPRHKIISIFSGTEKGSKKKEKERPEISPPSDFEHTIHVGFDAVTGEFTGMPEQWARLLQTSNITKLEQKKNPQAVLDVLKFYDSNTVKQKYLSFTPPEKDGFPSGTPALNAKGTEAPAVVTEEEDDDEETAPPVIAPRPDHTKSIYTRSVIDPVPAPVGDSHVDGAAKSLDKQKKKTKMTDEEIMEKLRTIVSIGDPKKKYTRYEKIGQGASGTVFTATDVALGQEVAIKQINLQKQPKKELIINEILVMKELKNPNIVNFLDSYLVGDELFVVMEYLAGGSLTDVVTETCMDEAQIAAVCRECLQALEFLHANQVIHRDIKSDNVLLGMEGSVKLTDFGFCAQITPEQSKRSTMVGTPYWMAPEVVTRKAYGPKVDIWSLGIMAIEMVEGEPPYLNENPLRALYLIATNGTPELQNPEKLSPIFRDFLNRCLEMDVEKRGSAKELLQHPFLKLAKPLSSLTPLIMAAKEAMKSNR
Chain of EPHA2 (P29317 whole entry): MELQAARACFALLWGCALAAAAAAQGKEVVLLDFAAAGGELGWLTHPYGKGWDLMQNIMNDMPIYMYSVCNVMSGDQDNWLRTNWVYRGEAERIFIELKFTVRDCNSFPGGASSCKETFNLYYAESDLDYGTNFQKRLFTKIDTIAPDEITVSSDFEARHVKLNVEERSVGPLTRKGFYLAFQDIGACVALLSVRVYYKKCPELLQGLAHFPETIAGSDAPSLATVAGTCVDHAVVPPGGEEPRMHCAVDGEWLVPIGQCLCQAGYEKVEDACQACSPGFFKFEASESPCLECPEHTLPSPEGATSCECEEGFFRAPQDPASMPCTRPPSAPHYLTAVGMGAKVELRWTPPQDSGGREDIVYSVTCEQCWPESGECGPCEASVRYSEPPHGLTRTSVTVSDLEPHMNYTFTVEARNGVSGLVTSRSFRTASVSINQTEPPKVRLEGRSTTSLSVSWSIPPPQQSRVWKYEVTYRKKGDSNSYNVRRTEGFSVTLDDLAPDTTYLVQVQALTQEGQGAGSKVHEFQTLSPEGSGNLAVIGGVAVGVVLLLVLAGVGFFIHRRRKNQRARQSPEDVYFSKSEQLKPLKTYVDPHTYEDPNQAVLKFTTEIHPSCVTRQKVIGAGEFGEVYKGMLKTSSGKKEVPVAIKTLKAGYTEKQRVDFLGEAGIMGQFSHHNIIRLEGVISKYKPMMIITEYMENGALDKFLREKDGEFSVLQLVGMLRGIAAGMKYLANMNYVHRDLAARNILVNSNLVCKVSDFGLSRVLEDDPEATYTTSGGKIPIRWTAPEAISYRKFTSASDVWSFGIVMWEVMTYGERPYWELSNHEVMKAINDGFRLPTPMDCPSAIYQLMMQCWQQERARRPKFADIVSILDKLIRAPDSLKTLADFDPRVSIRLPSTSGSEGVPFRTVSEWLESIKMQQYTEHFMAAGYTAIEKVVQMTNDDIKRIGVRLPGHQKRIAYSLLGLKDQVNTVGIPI
Chain of PLK3 (Q9H4B4 whole entry): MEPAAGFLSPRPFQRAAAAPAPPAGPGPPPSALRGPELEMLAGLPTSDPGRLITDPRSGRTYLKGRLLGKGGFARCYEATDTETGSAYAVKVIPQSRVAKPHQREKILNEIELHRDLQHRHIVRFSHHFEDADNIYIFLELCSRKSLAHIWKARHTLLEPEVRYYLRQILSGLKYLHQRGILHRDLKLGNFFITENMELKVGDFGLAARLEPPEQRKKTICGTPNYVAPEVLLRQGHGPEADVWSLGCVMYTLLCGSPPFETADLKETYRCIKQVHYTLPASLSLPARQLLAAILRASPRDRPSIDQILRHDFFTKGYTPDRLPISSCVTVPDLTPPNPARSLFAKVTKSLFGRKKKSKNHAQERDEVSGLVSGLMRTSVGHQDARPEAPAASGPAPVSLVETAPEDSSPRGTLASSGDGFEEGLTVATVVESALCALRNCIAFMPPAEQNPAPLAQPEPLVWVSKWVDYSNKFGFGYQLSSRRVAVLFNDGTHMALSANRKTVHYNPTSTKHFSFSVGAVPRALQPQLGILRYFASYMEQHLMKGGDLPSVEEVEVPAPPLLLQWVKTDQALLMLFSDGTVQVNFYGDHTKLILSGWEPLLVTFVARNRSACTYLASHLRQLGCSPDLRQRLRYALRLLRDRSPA

inhibition at 1 µM (PDGFRA (PDGFR alpha)): 1.77%
inhibition at 3 µM (PDGFRA (PDGFR alpha)): 20.1%
inhibition at 10 µM (PDGFRA (PDGFR alpha)): 16.3%
inhibition at 1 µM (PAK2 (PAK65)): 4.79%
inhibition at 3 µM (PAK2 (PAK65)): 5.93%
inhibition at 10 µM (PAK2 (PAK65)): 0.538%
inhibition at 1 µM (ERBB4 (HER4)): -2.57%
inhibition at 3 µM (ERBB4 (HER4)): -5.3%
inhibition at 10 µM (ERBB4 (HER4)): -3.59%
inhibition at 1 µM (CSF1R (FMS)): 10.1%
inhibition at 3 µM (CSF1R (FMS)): 14%
inhibition at 10 µM (CSF1R (FMS)): 13.3%
inhibition at 1 µM (PAK1): 21.4%
inhibition at 3 µM (PAK1): -0.318%
inhibition at 10 µM (PAK1): 19.2%
inhibition at 1 µM (EPHA2): 13.8%
inhibition at 3 µM (EPHA2): 8.03%
inhibition at 10 µM (EPHA2): 8.38%
inhibition at 1 µM (TEK (Tie2)): 8.6%
inhibition at 3 µM (TEK (Tie2)): 10.7%
inhibition at 10 µM (TEK (Tie2)): 5.64%
inhibition at 1 µM (RET): 7.87%
inhibition at 3 µM (RET): 5.35%
inhibition at 10 µM (RET): 5%
inhibition at 1 µM (ABL1 T315I): 1.95%
inhibition at 3 µM (ABL1 T315I): 3.78%
inhibition at 10 µM (ABL1 T315I): 2.19%
inhibition at 1 µM (ACVR1B (ALK4)): 5.04%
inhibition at 3 µM (ACVR1B (ALK4)): 9.13%
inhibition at 10 µM (ACVR1B (ALK4)): 4.09%
inhibition at 1 µM (ERBB2 (HER2)): -1.62%
inhibition at 3 µM (ERBB2 (HER2)): -3.07%
inhibition at 10 µM (ERBB2 (HER2)): -10.7%
inhibition at 1 µM (PLK3): 3.58%
inhibition at 3 µM (PLK3): 4.83%
inhibition at 10 µM (PLK3): 4.26%
inhibition at 1 µM (MET (cMet)): 4.73%
inhibition at 3 µM (MET (cMet)): 8.1%
inhibition at 10 µM (MET (cMet)): -2.17%
inhibition at 1 µM (PLK1): 9.36%
inhibition at 3 µM (PLK1): 10%
inhibition at 10 µM (PLK1): 7.66%
inhibition at 1 µM (AKT2 (PKB beta)): 6.93%
inhibition at 3 µM (AKT2 (PKB beta)): 6.2%
inhibition at 10 µM (AKT2 (PKB beta)): 4.52%
inhibition at 1 µM (PRKACA (PKA)): 9.77%
inhibition at 3 µM (PRKACA (PKA)): 8.29%
inhibition at 10 µM (PRKACA (PKA)): 5.74%
inhibition at 1 µM (PRKCA (PKC alpha)): 0.445%
inhibition at 3 µM (PRKCA (PKC alpha)): 18.8%
inhibition at 10 µM (PRKCA (PKC alpha)): 15.2%
inhibition at 1 µM (MAP3K8 (COT)): 2.37%
inhibition at 3 µM (MAP3K8 (COT)): 11.4%
inhibition at 10 µM (MAP3K8 (COT)): 4.89%
Compound: CS(=O)(=O)Nc1cccc(-c2csc(NC(=O)CSc3nc4nccnc4c(=O)n3CCc3ccccc3)n2)c1 [compound 3, PITCOIN3]

inhibition at 1 µM (PDGFRA (PDGFR alpha)): 8.94%
inhibition at 3 µM (PDGFRA (PDGFR alpha)): 1.9%
inhibition at 10 µM (PDGFRA (PDGFR alpha)): 4.84%
inhibition at 1 µM (PAK2 (PAK65)): 2.87%
inhibition at 3 µM (PAK2 (PAK65)): -3.37%
inhibition at 10 µM (PAK2 (PAK65)): 3.3%
inhibition at 1 µM (ERBB4 (HER4)): -3.45%
inhibition at 3 µM (ERBB4 (HER4)): -1.62%
inhibition at 10 µM (ERBB4 (HER4)): 0.146%
inhibition at 1 µM (CSF1R (FMS)): 12.1%
inhibition at 3 µM (CSF1R (FMS)): 7.54%
inhibition at 10 µM (CSF1R (FMS)): 7.66%
inhibition at 1 µM (PAK1): -5.17%
inhibition at 3 µM (PAK1): -2.58%
inhibition at 10 µM (PAK1): -1.88%
inhibition at 1 µM (EPHA2): 6.54%
inhibition at 3 µM (EPHA2): 8.4%
inhibition at 10 µM (EPHA2): 9.38%
inhibition at 1 µM (TEK (Tie2)): 7.5%
inhibition at 3 µM (TEK (Tie2)): 5.07%
inhibition at 10 µM (TEK (Tie2)): 3.39%
inhibition at 1 µM (RET): 4.11%
inhibition at 3 µM (RET): 3.69%
inhibition at 10 µM (RET): 4.56%
inhibition at 1 µM (ABL1 T315I): -2.1%
inhibition at 3 µM (ABL1 T315I): -3.21%
inhibition at 10 µM (ABL1 T315I): -2.35%
inhibition at 1 µM (ACVR1B (ALK4)): 3.41%
inhibition at 3 µM (ACVR1B (ALK4)): 5.04%
inhibition at 10 µM (ACVR1B (ALK4)): 3.29%
inhibition at 1 µM (ERBB2 (HER2)): -9.9%
inhibition at 3 µM (ERBB2 (HER2)): -2.96%
inhibition at 10 µM (ERBB2 (HER2)): -11.6%
inhibition at 1 µM (PLK3): 3.02%
inhibition at 3 µM (PLK3): 3.24%
inhibition at 10 µM (PLK3): 5.6%
inhibition at 1 µM (MET (cMet)): 4.52%
inhibition at 3 µM (MET (cMet)): -1.8%
inhibition at 10 µM (MET (cMet)): 1.23%
inhibition at 1 µM (PLK1): 8.77%
inhibition at 3 µM (PLK1): 11%
inhibition at 10 µM (PLK1): 10.9%
inhibition at 1 µM (AKT2 (PKB beta)): 4.3%
inhibition at 3 µM (AKT2 (PKB beta)): 3.38%
inhibition at 10 µM (AKT2 (PKB beta)): 4.53%
inhibition at 1 µM (PRKACA (PKA)): 9.73%
inhibition at 3 µM (PRKACA (PKA)): 5.23%
inhibition at 10 µM (PRKACA (PKA)): 4.58%
inhibition at 1 µM (PRKCA (PKC alpha)): 6.59%
inhibition at 3 µM (PRKCA (PKC alpha)): 10%
inhibition at 10 µM (PRKCA (PKC alpha)): 0.714%
inhibition at 1 µM (MAP3K8 (COT)): 1.68%
inhibition at 3 µM (MAP3K8 (COT)): -2.27%
inhibition at 10 µM (MAP3K8 (COT)): 4.32%
Compound: O=C(CSc1nc2nccnc2c(=O)n1CCc1ccccc1)Nc1nccs1 [compound 1, PITCOIN1]
